According to paper PMC12010006, “Subnanomolar MAS-related G protein-coupled receptor-X2/B2 antagonists with efficacy in human mast cells and disease models” (Signal Transduction and Targeted Therapy, 2025):

Columns and labels:
C3a-induced response = assay: Surface expression of CD107a and CD63 (flow cytometry), LAD2 cells activated with C3a; assay type: cell-based, human; details: 30 nM; C3a 3 nM
Protocol: The granule-associated proteins CD107a and CD63 externalize in the process of degranulation. Their quantification by flow cytometry is a reliable marker of mast cell activation, which is often used for the diagnosis of allergies and anaphylaxis in mast cell activation tests.[49],[50] Thus, the expression of CD107a and CD63 on the cell surface was determined to confirm the effects of PSB-172656 on SP-induced MRGPRX2-mediated degranulation. […] In addition to MRPGRX2, LAD2 cells also express a GPCR that is specifically activated by the complement component C3a.[51] Both receptors can activate Gαi/o proteins to promote MC activation.[48],[52]
MC degranulation was also measured by determining the cell surface expression of CD107a (Lysosomal-Associated Membrane Protein-1, LAMP-1) and CD63 (LAMP-3) after agonist stimulation.[48] LAD2 cells were preincubated with PSB-172656 or vehicle control for 5 min at 37 °C, then activated with SP (0.3 μM) and or C3a (3 nM) for 5 min at 37 °C. After 5 min of incubation, cells were fixed with 500 µL of 4% fixation buffer (Biolegend, Catalog 420801) for 15 min at room temperature. […] Cell surface expression of CD107a and CD63 was measured from the zombie-yellow negative population by a BD LSR II flow cytometer (San Jose, CA, USA) and analyzed by FlowJo software version 10.7.2 (Tree Star Inc., Ashland, OR, USA).[48],[50]

[1] = Metabolic stability in human liver microsomes; assay type: in vitro ADME; details: human liver microsomes 0.25 mg/ml, compound 1 µM
MRGPRX2 = molecular target: T1, MRGPRX2 (Homo sapiens, UniProt Q96LB1); assay: β-hexosaminidase release, primary human skin mast cells; assay type: cell-based
T1 sequence (Q96LB1 1-330): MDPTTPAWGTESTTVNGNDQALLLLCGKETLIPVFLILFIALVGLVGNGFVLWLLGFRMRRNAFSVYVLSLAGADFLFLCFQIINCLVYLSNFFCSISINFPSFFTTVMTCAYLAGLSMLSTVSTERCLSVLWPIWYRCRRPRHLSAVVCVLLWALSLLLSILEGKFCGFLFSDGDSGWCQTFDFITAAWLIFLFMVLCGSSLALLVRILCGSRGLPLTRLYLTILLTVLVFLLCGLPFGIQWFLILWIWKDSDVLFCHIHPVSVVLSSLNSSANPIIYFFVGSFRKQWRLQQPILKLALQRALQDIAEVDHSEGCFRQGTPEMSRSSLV
Protocol: Finally, the effect of the MRGPRX2 antagonist PSB-172656 on MRGPRX2-mediated MC degranulation in primary human skin mast cells isolated from breast skin tissue was investigated. These cells were controlled by flow cytometry for CD117, FcεRI, and MRGPRX2 to ensure their purity (Supplementary Fig. S6), and their functionality was assessed using the MC degranulation β-hexosaminidase release assay (Fig. 6g).
MCs were isolated from breast skin tissue, which was sectioned into strips and digested overnight at 4 °C in 2.4 U/mL dispase type II (Fisher Scientific). […] The purity of the MC cultures was assessed by flow cytometry for CD117 and FcεRI (Miltenyi) and exceeded 95%. […]
For β-hexosaminidase release assays, MCs were fed the day before stimulation with the medium. […] The reaction was stopped by adding 100 µL of sodium carbonate buffer (pH 10.7), and fluorescence was measured at 460 nm and excitation at 355 nm for 0.1 s. The percentage of β-hexosaminidase release was calculated as: […] × 100. […]

SMILES: CCc1c(C(C)C)[nH]c2nc3cc(F)c(F)cc3n2c1=O [Compound 24, 3-ethyl-7,8-difluoro-2-isopropylbenzo[4,5]imidazo [1,2-a] pyrimidin-4(1H)-one]
- effect on C3a-induced expression of CD107a and CD63 (C3a-induced response): did not affect
- half-life at 1 µM ([1]; both sexes, human, liver microsomes, read-out: T1/2 (half-life)): 1.53 h
- microsomal CLint at 1 µM ([1]; both sexes, read-out: Clint (intrinsic clearance)): 15 µL/min/mg
- T1/2 (half-life) [1]: 1.54 h
- T1/2 (half-life) ([1]; listed as PSB-172656): > 1.5 h
- inhibition at 1.25 µM (MRGPRX2; lowest tested concentration 1.25 µM, versus CST-14, read-out: inhibition of β-hexosaminidase release in human skin MCs): > 50%
- effect on MC degranulation in primary human skin mast cells (MRGPRX2; versus CST-14 (1 µM)): inhibited MC degranulation in response to CST-14 exposure (1 µM) in a concentration-dependent manner
